pIC50: −log10 of the molar value.
Tests used:
[1] = biological target: 3',5'-cyclic-AMP phosphodiesterase 4B (Homo sapiens, UniProt Q07343); assay: Inhibition of full-length human PDE4B2 assessed as cAMP hydrolysis preincubated for 20 mins followed by cAMP addition measured after 30 mins
[2] = biological target: T1, 3',5'-cyclic-AMP phosphodiesterase 4D (Homo sapiens, UniProt Q08499); assay: Inhibition of full-length human PDE4D2 assessed as cAMP hydrolysis preincubated for 20 mins followed by cAMP addition measured after 30 mins
Homo sapiens [3] = species on record: Homo sapiens; assay: Selectivity ratio of IC50 for full-length human PDE4D2 to IC50 for full-length human PDE4B2
[4] = Antiinflammatory activity in Balb/c mouse splenocytes assessed as inhibition of LPS-induced TNF-alpha production after 18 to 24 hrs; assay type: functional, cell-based; conditions: Splenocyte
Homo sapiens [5] = species on record: Homo sapiens; assay: Selectivity ratio of IC50 for recombinant human PDE4D (78 to 508) to IC50 for recombinant human PDE4B (152 to 564)
[6] = biological target: T1, 3',5'-cyclic-AMP phosphodiesterase 4D; assay: Inhibition of recombinant human PDE4D (78 to 508)
[7] = AUC in mouse at 10 mg/kg, po; assay type: ADME, organism-based; parameters: dose 10 mg/kg, route oral; conditions: plasma
[8] = Cmax in mouse at 10 mg/kg, po; assay type: ADME, organism-based; parameters: dose 10 mg/kg, route oral; conditions: in vivo
[9] = 1-octanol-phosphate buffered saline distribution coefficient, log D of the compound at 200 uM at pH 7.4 after 30 mins by shake flask method; assay type: physicochemical
[10] = Terminal half life in mouse at 10 mg/kg, po; assay type: ADME, organism-based; parameters: dose 10 mg/kg, route oral; conditions: in vivo, read-out: beta t1/2 (converted)
[11] = Permeability of the compound at 50 uM at pH 7.4 after 4 hrs by PAMPA; assay type: ADME; conditions: read-out: permeability

Sequence of 3',5'-cyclic-AMP phosphodiesterase 4B (Q07343 whole entry): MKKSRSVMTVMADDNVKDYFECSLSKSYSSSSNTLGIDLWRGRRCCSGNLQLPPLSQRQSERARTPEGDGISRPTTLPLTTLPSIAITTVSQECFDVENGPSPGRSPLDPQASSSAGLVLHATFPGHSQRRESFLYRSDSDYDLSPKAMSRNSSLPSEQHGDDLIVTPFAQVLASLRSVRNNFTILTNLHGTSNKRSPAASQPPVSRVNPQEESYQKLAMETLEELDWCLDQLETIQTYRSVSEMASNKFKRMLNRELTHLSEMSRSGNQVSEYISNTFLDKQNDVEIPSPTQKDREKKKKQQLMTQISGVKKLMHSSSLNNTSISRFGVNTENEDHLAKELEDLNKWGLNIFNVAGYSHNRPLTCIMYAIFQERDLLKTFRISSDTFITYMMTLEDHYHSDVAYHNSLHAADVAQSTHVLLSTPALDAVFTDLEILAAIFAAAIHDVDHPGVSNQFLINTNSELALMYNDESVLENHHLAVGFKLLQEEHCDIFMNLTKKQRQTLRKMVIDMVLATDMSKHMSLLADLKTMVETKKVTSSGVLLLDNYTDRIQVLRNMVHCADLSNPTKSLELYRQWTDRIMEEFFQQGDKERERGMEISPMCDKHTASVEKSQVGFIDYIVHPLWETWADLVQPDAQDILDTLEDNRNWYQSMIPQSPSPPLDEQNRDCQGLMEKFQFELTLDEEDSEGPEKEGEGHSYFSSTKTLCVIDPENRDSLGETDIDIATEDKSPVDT
T1 sequence (Q08499 whole entry): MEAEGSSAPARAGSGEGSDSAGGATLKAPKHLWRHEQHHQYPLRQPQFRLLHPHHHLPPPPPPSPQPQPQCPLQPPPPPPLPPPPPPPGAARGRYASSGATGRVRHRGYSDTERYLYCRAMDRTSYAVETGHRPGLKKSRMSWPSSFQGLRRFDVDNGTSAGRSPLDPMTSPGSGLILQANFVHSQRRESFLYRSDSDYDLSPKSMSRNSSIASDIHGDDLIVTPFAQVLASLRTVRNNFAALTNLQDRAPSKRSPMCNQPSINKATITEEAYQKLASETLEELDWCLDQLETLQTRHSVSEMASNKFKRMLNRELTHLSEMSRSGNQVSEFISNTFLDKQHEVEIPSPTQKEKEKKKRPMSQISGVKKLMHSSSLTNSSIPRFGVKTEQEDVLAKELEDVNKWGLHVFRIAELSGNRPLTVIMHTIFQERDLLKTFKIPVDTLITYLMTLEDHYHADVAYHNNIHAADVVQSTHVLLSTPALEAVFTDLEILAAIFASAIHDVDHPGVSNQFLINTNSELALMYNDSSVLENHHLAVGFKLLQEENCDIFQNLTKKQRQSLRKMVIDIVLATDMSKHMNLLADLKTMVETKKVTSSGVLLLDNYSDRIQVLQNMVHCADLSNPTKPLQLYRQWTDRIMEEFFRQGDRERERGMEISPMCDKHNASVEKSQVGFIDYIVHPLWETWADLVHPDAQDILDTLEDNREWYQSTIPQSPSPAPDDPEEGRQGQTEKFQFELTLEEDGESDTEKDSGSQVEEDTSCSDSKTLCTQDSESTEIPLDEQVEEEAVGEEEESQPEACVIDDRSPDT

SMILES	pIC50 [1]	pIC50 [2]	Ratio IC50 (Homo sapiens [3])	also measured
COc1ccc(-c2nc3c(c(Nc4ccc(CC(=O)NCC(C)(C)C)cc4)n2)S(=O)(=O)CCC3)cc1F	7.11	6.52	3.8	–
O=C(O)Cc1ccc(Nc2nc(-c3ccc4ccccc4c3)nc3c2S(=O)(=O)CCC3)cc1F	8.23	6.09	137	pIC50 [4]: 7.36
O=C(O)Cc1ccc(Nc2nc(-c3ccccc3)nc3c2SCCC3)cc1	6.68	5.89	6.2	Ratio IC50 (Homo sapiens [5]): 45; pIC50 [6]: 5.89
O=C(O)Cc1ccc(Nc2nc(-c3ccc(Cl)cc3)nc3c2SCCC3)cc1	6.92	6.38	3.5	–
COc1ccc(-c2nc3c(c(Nc4ccc(CC(=O)O)c(F)c4)n2)S(=O)(=O)CCC3)c(F)c1F	8.09	5.85	171	pIC50 [4]: 6.88
CCCCNC(=O)Cc1ccc(Nc2nc(-c3ccccc3)nc3c2S(=O)(=O)CCC3)cc1	7.15	6.74	2.6	Ratio IC50 (Homo sapiens [5]): 12; pIC50 [6]: 6.59
COc1ccc(-c2nc3c(c(Nc4ccc(CC(=O)O)cc4)n2)SCCC3)cc1Cl	7.15	6.37	6.1	–
COc1ccc(-c2nc3c(c(Nc4cc(F)c(CC(=O)O)cc4F)n2)S(=O)(=O)CCC3)cc1F	7.80	5.89	81	–
O=C(O)Cc1ccc(Nc2nc(-c3ccccc3F)nc3c2SCCC3)cc1	6.06	5.47	3.9	–
COc1ccc(-c2nc3c(c(Nc4ccc(CC(=O)O)cc4)n2)SCCC3)cn1	6.85	5.13	53	–
COc1ccc(-c2nc3c(c(Nc4ccc(CC(=O)O)cc4)n2)SCCC3)c(F)c1F	6.85	5.66	16	–
CN(C)c1ccc(-c2nc3c(c(Nc4ccc(CC(=O)O)cc4)n2)SCCC3)cn1	6.85	5.80	11	–
O=C(O)Cc1ccc(Nc2nc(-c3cc4ccccc4s3)nc3c2S(=O)(=O)CCC3)cc1F	8.42	6.22	158	pIC50 [4]: 7.96
COc1ccc(-c2nc3c(c(Nc4ccc(CC(=O)O)cc4)n2)SCCC3)cc1	7.96	6.55	25	–
COc1cccc(-c2nc3c(c(Nc4ccc(CC(=O)O)cc4)n2)SCCC3)c1	6.92	5.74	15	–
O=C(O)Cc1ccc(Nc2nc(-c3cccc(F)c3)nc3c2SCCC3)cc1	7.24	6.17	12	–
COc1ccc(-c2nc3c(c(Nc4cc(Cl)c(CC(=O)O)cc4Cl)n2)S(=O)(=O)CCC3)cc1F	7.31	6.22	12	–
COc1ccc(-c2nc3c(c(Nc4cc(F)c(CC(=O)O)c(F)c4)n2)S(=O)(=O)CCC3)cc1F	8.28	6.24	112	–
COc1ccc(-c2nc3c(c(Nc4ccc(CC(=O)O)c(Cl)c4)n2)S(=O)(=O)CCC3)cc1F	7.19	5.89	20	–
N#Cc1ccc(-c2nc3c(c(Nc4ccc(CC(=O)O)cc4)n2)SCCC3)cc1	7.52	6.54	9.7	–
COc1ccc(-c2nc3c(c(Nc4ccc(CC(=O)O)c(F)c4)n2)S(=O)(=O)CCC3)cc1F	8.34	6.21	135	pIC50 [4]: 7.74; AUC [7]: 2770 ng·h/mL; Cmax [8]: 1700 ng/mL; logD at 0.5 h, 200 µM [9]: 0.8; half-life [10]: 2 h; Papp at 4 h, 50 µM [11]: 14.3 ×10⁻⁶ cm/s
COc1ccc(-c2nc3c(c(Nc4cc(F)c(CC(=O)O)cc4Cl)n2)S(=O)(=O)CCC3)cc1F	8.00	6.25	57	–
O=C(O)Cc1ccc(Nc2nc(-c3ccc(F)cc3)nc3c2SCCC3)cc1	6.92	6.00	8.3	–
COc1ccc(-c2nc3c(c(Nc4ccc(CC(=O)O)c(F)c4)n2)S(=O)(=O)CCC3)cc1Cl	8.52	5.89	433	pIC50 [4]: 7.96
CC(=O)c1ccc(-c2nc3c(c(Nc4ccc(CC(=O)O)cc4)n2)SCCC3)cc1	7.47	6.00	29	–

Second part, led by results:

pIC50 [1]	pIC50 [2]	Ratio IC50 (Homo sapiens [3])	SMILES	also measured
7.42	5.68	55	CN(C)c1ccc(-c2nc3c(c(Nc4ccc(CC(=O)O)cc4)n2)S(=O)(=O)CCC3)cc1	–
7.89	5.89	100	COc1ccc(-c2nc3c(c(Nc4ccc(CC(=O)O)cc4)n2)S(=O)(=O)CCC3)cc1Cl	–
7.25	5.92	21	CN(C)c1ccc(-c2nc3c(c(Nc4ccc(CC(=O)O)cc4)n2)S(=O)(=O)CCC3)cn1	–
7.34	5.47	74	COc1ccc(-c2nc3c(c(Nc4ccc(CC(=O)O)cc4)n2)S(=O)(=O)CCC3)c(F)c1F	–
6.82	6.26	3.7	O=C(O)Cc1ccc(Nc2nc(-c3ccccc3)nc3c2S(=O)(=O)CCC3)cc1	Ratio IC50 (Homo sapiens [5]): 112; pIC50 [6]: 5.55
8.00	6.00	100	COc1ccc(-c2nc3c(c(Nc4ccc(CC(=O)O)cc4)n2)S(=O)(=O)CCC3)cc1F	–
7.36	5.82	34	COc1ccc(-c2nc3c(c(Nc4ccc(CC(=O)O)cc4)n2)S(=O)(=O)CCC3)cc1	–
7.42	6.10	21	CN(C)c1ccc(-c2nc3c(c(Nc4ccc(CC(=O)O)cc4)n2)SCCC3)cc1	–
8.12	5.89	173	COc1ccc(-c2nc3c(c(Nc4ccc(CC(=O)O)c(F)c4)n2)S(=O)(=O)CCC3)cc1	pIC50 [4]: 7.02
7.85	6.36	31	O=C(O)Cc1ccc(Nc2nc(-c3ccc4c(F)cccc4c3)nc3c2S(=O)(=O)CCC3)cc1	–
8.00	6.07	86	CC(=O)c1ccc(-c2nc3c(c(Nc4ccc(CC(=O)O)cc4)n2)S(=O)(=O)CCC3)cc1	–
7.52	6.54	9.7	COc1cccc2cc(-c3nc4c(c(Nc5ccc(CC(=O)O)cc5)n3)S(=O)(=O)CCC4)ccc12	–
7.70	5.96	55	O=C(O)Cc1ccc(Nc2nc(-c3cc4ccccc4o3)nc3c2S(=O)(=O)CCC3)cc1	–
8.08	6.40	48	O=C(O)Cc1ccc(Nc2nc(-c3cc4ccccc4s3)nc3c2S(=O)(=O)CCC3)cc1	–
7.42	6.10	21	O=C(O)Cc1ccc(Nc2nc(-c3ccc(-c4ccccc4)cc3)nc3c2S(=O)(=O)CCC3)cc1	–
7.72	6.28	27	O=C(O)Cc1ccc(Nc2nc(-c3ccc4ccccc4c3)nc3c2S(=O)(=O)CCC3)cc1	–
6.60	5.42	15	COc1ccc(-c2nc3c(c(Nc4ccc(CC(=O)O)cc4)n2)S(=O)(=O)CCC3)cn1	–

From ChEMBL document CHEMBL3112394, “Identification of the 5,5-dioxo-7,8-dihydro-6H-thiopyrano[3,2-d]pyrimidine derivatives as highly selective PDE4B inhibitors” (Bioorg Med Chem Lett, 2014)
